Assay: solvent given as SMILES

O=c1c2ccccc2sc2ccccc12
Settings	solvation free energy, 298 K [kcal/mol]
in C1CCOC1	-13.2
in C1COCCO1	-12.9
in CC(C)CC(C)(C)C	-10.7
in CC(C)CCO	-11.8
in CC(C)CO	-11.7
in CC(C)O	-11.9
in CC(C)OC(C)C	-11.6
in CC(C)OCCO	-12.3
in CCC(C)O	-11.8
in CCCC(=O)OC	-12.5
in CCCC(C)CO	-11.9
in CCCC(C)O	-11.9
in CCCCC(CC)CO	-12
in CCCCCC	-10.9
in CCCCCCC	-11
in CCCCCCCC	-11.1
in CCCCCCCCC=CCCCCCCCC(=O)OCC(COC(=O)CCCCCCCC=CCCCCCCCC)OC(=O)CCCCCCCC=CCCCCCCCC	-11.8
in CCCCCCCCCCO	-12.1
in CCCCCCCCO	-12.1
in CCCCCCCO	-12
in CCCCCCO	-12
in CCCCCO	-11.9
in CCCCCOC(C)=O	-12.4
in CCCCO	-11.9
in CCCCOC(C)=O	-12.4
in CCCCOCCCC	-11.7
in CCCCOCCO	-12.4
in CCCO	-11.8
in CCCOCCO	-12.4
in CCO	-11.9
in CCOC(C)=O	-12.5
in CCOCCO	-12.4
in CO	-11.5
in COC(C)(C)C	-11.9
in COC(C)=O	-12.6
in Cc1ccc(C)cc1	-12.6
in Cc1cccc(C)c1	-12.6
in Cc1ccccc1C	-12.7
in O	-6.9

COc1cc(Cc2cnc(N)nc2N)cc(OC)c1OC
Settings	solvation free energy, 298 K [kcal/mol]
in C1CCOC1	-19.9
in CC(C)O	-19.2
in CCC(C)O	-19.4
in CCCCO	-19.5
in CCCO	-19.8
in CCO	-19.8
in CO	-20.6

ClCCl
Settings	solvation free energy, 298 K [kcal/mol]
in C1CCOC1	-4.27
in C1COCCO1	-4.09
in C=CCCCCCCCCCCCCCC	-2.77
in CC#N	-3.99
in CC(=O)N(C)C	-4.34
in CC(C)=O	-4.13
in CC(C)CC(C)(C)C	-2.84
in CC(C)O	-3.26
in CCC(C)=O	-4.05
in CCCCC	-3.09
in CCCCCCC	-2.91
in CCCCCCCC	-2.86
in CCCCCCCCC=CCCCCCCCC(=O)OCC(COC(=O)CCCCCCCC=CCCCCCCCC)OC(=O)CCCCCCCC=CCCCCCCCC	-3.37
in CCCCCCCCCCCCCC	-2.67
in CCCCCCCCCCCCCCCC	-2.72
in CCCCCCCCCCCCO	-2.91
in CCCCCCCCN(CCCCCCCC)CCCCCCCC	-2.82
in CCCCCCCCO	-3.08
in CCCCCN(CCCCC)CCCCC	-2.99
in CCCCCO	-3.19
in CCCCCl	-3.55
in CCCCN(C=O)CCCC	-3.92
in CCCCN(CCCC)CCCC	-2.87
in CCCCO	-3.29
in CCCCOC	-3.78
in CCCCOCCCC	-3.21
in CCCOCCC	-3.51
in CCN1CCCC1=O	-4.29
in CCN(CC)C(C)=O	-4.28
in CCNC(C)=O	-3.72
in CCNC=O	-3.7
in CCO	-3.36
in CCOC(=O)c1ccccc1C(=O)OCC	-3.51
in CCOC(C)=O	-4.04
in CCOCC	-3.87
in CN1CCCC1=O	-4.23
in CN1CCCCC1=O	-4.45
in CNC(C)=O	-3.74
in CO	-3.49
in COC(C)=O	-4.03
in CS(C)=O	-4.13
in Cc1ccc(C)cc1	-3.55
in Cc1cccc(C)c1	-3.58
in Cc1ccccc1C	-3.58
in ClC(Cl)(Cl)Cl	-3.36
in ClC(Cl)Cl	-3.62
in ClCCCl	-3.72
in Clc1ccccc1	-3.53
in N#Cc1ccccc1	-3.78
in NC=O	-2.66
in O	-1.32
in O=C1CCCCC1	-4.13
in [2H]O[2H]	-1.5

Clc1ccc(-c2cc(Cl)c(Cl)cc2Cl)cc1Cl
Settings	solvation free energy, 298 K [kcal/mol]
in O	-3.36

Cc1cnccn1
Settings	solvation free energy, 298 K [kcal/mol]
in O	-5.51

Cc1cccc(C(C)C)c1
Settings	solvation free energy, 298 K [kcal/mol]
in O	-0.72

CCCCC(C)CCC (stereo not given)
Settings	solvation free energy, 298 K [kcal/mol]
in O	3.57

CCC(C)C
Settings	solvation free energy, 298 K [kcal/mol]
in C1=Cc2ccccc2C1	-2.54
in C=CCCCCCCCCCCCCCC	-2.66
in CC#N	-1.9
in CC(=O)N(C)C	-1.98
in CC(C)(C)O	-2.56
in CCCCCCCCCCCCCCCC	-2.76
in CCCCCCCCCOC(=O)c1ccccc1C(=O)OCCCCCCCCC	-2.36
in CCNC(C)=O	-2.22
in CN1CCCC1=O	-1.8
in CN1CCCCC1=O	-2.01
in CN(C)C=O	-1.9
in CN(C)P(=O)(N(C)C)N(C)C	-2
in CNC(C)=O	-2.03
in CNC=O	-1.57
in ClC(Cl)C(Cl)Cl	-2.38
in Clc1cccc2ccccc12	-2.24
in Ic1ccccc1	-2.37
in N#CCCCCC#N	-1.06
in N#CCc1ccccc1	-1.78
in N#Cc1ccccc1	-2.21
in O	2.39
in O=C1CCCCC1	-2.58

CC(=O)Oc1ccccc1C(=O)O
Settings	solvation free energy, 298 K [kcal/mol]
in C1CCOC1	-14.3
in C1COCCO1	-14.1
in CC(=O)CC(C)C	-13.2
in CC(=O)OC(C)C	-13.1
in CC(C)(C)O	-13.7
in CC(C)=O	-14.1
in CC(C)CCO	-13.4
in CC(C)CO	-13.2
in CC(C)O	-13.6
in CC(C)OC(C)C	-12.4
in CCC(C)=O	-13.7
in CCC(C)O	-13.5
in CCCC(=O)OC	-13.1
in CCCC(C)O	-13.3
in CCCCCCCCCCO	-12.9
in CCCCCCCO	-13.1
in CCCCCCO	-13.2
in CCCCCO	-13.3
in CCCCO	-13.4
in CCCCOC(C)=O	-13.1
in CCCO	-13.6
in CCO	-14
in CCOC(C)=O	-13.5
in CCOCC	-13.2
in CO	-14.1
in COC(C)(C)C	-13.2
in COC(C)=O	-13.6

[N-]=[N+]=O
Settings	solvation free energy, 298 K [kcal/mol]
in CC(C)=O	-1.05
in CC(C)CC(C)(C)C	-0.69
in CC(C)O	-0.48
in CCC(C)=O	-0.94
in CCCCCC	-0.74
in CCCCCCC	-0.65
in CCCCCCCC	-0.6
in CCCCCCCCCC	-0.49
in CCCCCCCCCCO	-0.55
in CCCCCCCCO	-0.45
in CCCCCCO	-0.49
in CCCCCO	-0.5
in CCCCO	-0.55
in CCCCOC(C)=O	-0.98
in CCCO	-0.59
in CCO	-0.61
in CO	-0.69
in COC(C)=O	-1.09
in ClC(Cl)(Cl)Cl	-0.86
in ClC(Cl)Cl	-0.97
in Clc1ccccc1	-0.68
in O	0.31

COC(=O)c1ccccc1
Settings	solvation free energy, 298 K [kcal/mol]
in CC(C)CC(C)(C)C	-6.71
in O	-3.91

CCC=CCC=CCC=CCCCCCCCC(=O)OC
Settings	solvation free energy, 298 K [kcal/mol]
in O	-3.47

OCC(F)(F)F
Settings	solvation free energy, 298 K [kcal/mol]
in C1COCCO1	-5.63
in CC(=O)N(C)C	-6.81
in CN(C)C=O	-6.93
in O	-4.31

C=C(C)C1CCC(C)C2=C(C1)C(C)CC2 (stereo not given)
Settings	solvation free energy, 298 K [kcal/mol]
in O	-0.01

C=CC=O
Settings	solvation free energy, 298 K [kcal/mol]
in CCCCCO	-3.22
in CCCCO	-3.21
in O	-3.16

O=S=O
Settings	solvation free energy, 298 K [kcal/mol]
in C1CCC2CCCCC2C1	-1.26
in C1CCCCC1	-1.23
in C1CCOC1	-3.93
in C1COCCO1	-3.41
in CC1COC(=O)O1	-3.16
in CC#N	-3.25
in CC(=O)N(C)C	-3.52
in CC(C)=O	-3.52
in CC(C)CC(C)(C)C	-1.17
in CCCCCCC	-1.36
in CCCCCCCC	-1.01
in CCCCCCCCCCCCCCCC	-1.1
in CCOC(C)=O	-3.22
in CN1CCCC1=O	-3.11
in CO	-2.84
in COC(=O)CC#N	-2.82
in COC(C)=O	-3.08
in COCCOCCO	-4.09
in COCCOCCOC	-4.02
in COCCOCCOCCOC	-3.89
in COCCOCCOCCOCCOC	-3.85
in CS(C)=O	-4.71
in ClCCCl	-2.55
in N#Cc1ccccc1	-2.59
in O	-2.07
in OCCO	-2.88
in OCc1ccccc1	-2.8
in c1ccncc1	-4.82

Clc1cc(Cl)c(-c2cc(Cl)c(Cl)cc2Cl)cc1Cl
Settings	solvation free energy, 298 K [kcal/mol]
in CCCCCCCCO	-12.9
in O	-3.1

Clc1ccc(-c2cc(Cl)c(Cl)c(Cl)c2Cl)cc1
Settings	solvation free energy, 298 K [kcal/mol]
in CCCCCCCCO	-12.8

CCCCCCCCCCCCCCCCCCO
Settings	solvation free energy, 298 K [kcal/mol]
in CC(C)O	-14.9
in CCC(C)=O	-13.8
in CCCCCCCCC=CCCCCCCCC(=O)OCC(COC(=O)CCCCCCCC=CCCCCCCCC)OC(=O)CCCCCCCC=CCCCCCCCC	-12.4
in CCCCCCCCCCO	-14.9
in CCCCCCCCO	-14.9
in CCCCCCO	-14.9
in CCCCOCCCC	-14.5
in CCOCC	-15
in O	-2.43

CCCC(=O)O
Settings	solvation free energy, 298 K [kcal/mol]
in C=CCCCCCCC=C	-4.39
in C=CCCCCCCCCCCCCCC	-3.94
in O	-6.34

Cc1c[nH]c2ccccc12
Settings	solvation free energy, 298 K [kcal/mol]
in O	-5.88

C=CCCC=C
Settings	solvation free energy, 298 K [kcal/mol]
in C=CCCCCCCCCCCCCCC	-3.36
in CCCCCCCCCCCCCCCC	-3.48
in CN1CCCC1=O	-3.23
in CS(C)=O	-2.74
in O	0.97

Brc1c(Br)c(Br)c(Br)c(Br)c1Br
Settings	solvation free energy, 298 K [kcal/mol]
in CCCCCCCCC=CCCCCCCCC(=O)OCC(COC(=O)CCCCCCCC=CCCCCCCCC)OC(=O)CCCCCCCC=CCCCCCCCC	-12.7
in O	-3.08

CNC=O
Settings	solvation free energy, 298 K [kcal/mol]
in C1CCCCC1	-3.86
in CC(C)=O	-7.35
in CCCCCCC	-3.68
in O	-8.87

— the CombiSolv-Exp solvation set (Vermeire and Green 2021)
